biological target: α4β7 integrin (Homo sapiens (Human), UniProt P13612+P26010); experiment: MAdCAM-1/α4β7 integrin binding inhibitory activity evaluation test in the presence of serum (2); format: cell-based; conditions: RPMI-8866 cells binding to mouse MAdCAM-1/Fc, same manner as Test (3), read-out: α4β7 Rank of activity with serum added
Procedure: The ability of test substances to inhibit the binding of a human B cell line, RPMI-8866, which is known to express α4β7 integrin, to MAdCAM-1 was measured.
To 96-well microtiter plates, recombinant mouse MAdCAM-1/Fc (R&D systems) solution (1 μg/mL) diluted with buffer A (carbonate buffer, pH 9.6) was added at 50 μL/well, followed by incubation at 4° C. overnight. After washing once with PBS, Block Ace (Snow Brand Milk Products Company, Limited) was added at 150 μL/well, followed by incubation at room temperature for 2 hours. After removal, washing was conducted once with PBS.
100 μL of each test substance diluted with a binding buffer (DMEM containing 40 mM HEPES, 0.2% BSA, and 4 mM MnCl2) to various concentrations and 100 μL of RPMI-8866 cells (2×10^6 cell/mL) were added to plates coated with MAdCAM-1/Fc (5×10^5 cells/well) with human serum being contained at a final concentration of 50%, followed by incubation at 30° C. for 15 minutes to 60 minutes. After the cells were bound to each well, unbound cells were removed by washing with PBS. To the plates, buffer C (PBS containing 1.5% Triton X-100) was added at 50 μL/well to lyse the bound RPMI-8866 cells. To 30 μL of the cell lysate, 30 μL of Substrate Buffer (Promega, CytoTox 96 Non-Radioactive Cytotoxicity Assay) was added, and the reaction was allowed to proceed at room temperature in a dark place for 30 minutes. To each well, 30 μL of Stop Solution (Promega, CytoTox 96 Non-Radioactive Cytotoxicity Assay) was added, and the absorbance at 490 nm was measured by using a plate reader. Here, by the obtained absorbance, the activity of the lactate dehydrogenase (LDH) dissolved into the supernatant of each well was detected. In other words, the absorbance was proportional to the number of the RPMI-8866 cells bound to MAdCAM-1 and remaining on the plate. The test was duplicated. The binding ratios of the cells at various concentrations were determined, with the absorbance of a well containing no test substance taken as 100%. Then, the concentration IC50, at which 50% binding inhibition was achieved, was calculated.
The MAdCAM-1/α4β7 integrin binding inhibitory activity in the presence of serum was measured in the same manner as in Test (3) described above. […] The VCAM-1/α4β1 integrin binding inhibitory activity evaluation test and the MAdCAM-1/α4β7 integrin binding inhibitory activity evaluation test were carried out according to the methods described in Tests (1) and (2) described above.

α4β7 integrin, sequence (P13612 34-1032): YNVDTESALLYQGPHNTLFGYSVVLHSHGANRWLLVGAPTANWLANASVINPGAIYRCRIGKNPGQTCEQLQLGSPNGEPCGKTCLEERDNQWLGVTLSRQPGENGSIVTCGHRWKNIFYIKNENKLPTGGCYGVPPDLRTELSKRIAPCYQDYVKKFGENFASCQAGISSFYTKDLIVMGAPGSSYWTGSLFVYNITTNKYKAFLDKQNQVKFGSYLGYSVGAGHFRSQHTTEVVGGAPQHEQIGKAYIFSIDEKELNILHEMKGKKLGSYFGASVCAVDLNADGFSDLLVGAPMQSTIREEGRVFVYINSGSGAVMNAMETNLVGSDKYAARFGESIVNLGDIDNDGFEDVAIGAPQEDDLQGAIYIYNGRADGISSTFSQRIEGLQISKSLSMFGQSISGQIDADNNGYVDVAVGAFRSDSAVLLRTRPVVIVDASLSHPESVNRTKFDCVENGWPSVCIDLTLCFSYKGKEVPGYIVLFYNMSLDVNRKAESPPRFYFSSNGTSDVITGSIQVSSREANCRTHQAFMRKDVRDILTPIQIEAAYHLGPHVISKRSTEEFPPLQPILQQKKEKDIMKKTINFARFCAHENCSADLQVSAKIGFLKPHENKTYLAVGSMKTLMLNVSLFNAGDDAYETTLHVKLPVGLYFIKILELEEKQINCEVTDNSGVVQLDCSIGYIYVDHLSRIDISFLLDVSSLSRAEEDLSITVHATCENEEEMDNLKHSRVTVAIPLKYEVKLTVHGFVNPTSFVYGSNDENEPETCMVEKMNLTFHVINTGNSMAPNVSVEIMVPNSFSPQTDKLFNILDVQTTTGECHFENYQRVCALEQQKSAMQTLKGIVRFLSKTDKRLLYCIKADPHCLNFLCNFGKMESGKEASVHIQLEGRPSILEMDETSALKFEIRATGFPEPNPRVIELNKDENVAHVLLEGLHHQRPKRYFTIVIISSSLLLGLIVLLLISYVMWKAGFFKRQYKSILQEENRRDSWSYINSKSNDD
α4β7 integrin, sequence (P26010 20-798): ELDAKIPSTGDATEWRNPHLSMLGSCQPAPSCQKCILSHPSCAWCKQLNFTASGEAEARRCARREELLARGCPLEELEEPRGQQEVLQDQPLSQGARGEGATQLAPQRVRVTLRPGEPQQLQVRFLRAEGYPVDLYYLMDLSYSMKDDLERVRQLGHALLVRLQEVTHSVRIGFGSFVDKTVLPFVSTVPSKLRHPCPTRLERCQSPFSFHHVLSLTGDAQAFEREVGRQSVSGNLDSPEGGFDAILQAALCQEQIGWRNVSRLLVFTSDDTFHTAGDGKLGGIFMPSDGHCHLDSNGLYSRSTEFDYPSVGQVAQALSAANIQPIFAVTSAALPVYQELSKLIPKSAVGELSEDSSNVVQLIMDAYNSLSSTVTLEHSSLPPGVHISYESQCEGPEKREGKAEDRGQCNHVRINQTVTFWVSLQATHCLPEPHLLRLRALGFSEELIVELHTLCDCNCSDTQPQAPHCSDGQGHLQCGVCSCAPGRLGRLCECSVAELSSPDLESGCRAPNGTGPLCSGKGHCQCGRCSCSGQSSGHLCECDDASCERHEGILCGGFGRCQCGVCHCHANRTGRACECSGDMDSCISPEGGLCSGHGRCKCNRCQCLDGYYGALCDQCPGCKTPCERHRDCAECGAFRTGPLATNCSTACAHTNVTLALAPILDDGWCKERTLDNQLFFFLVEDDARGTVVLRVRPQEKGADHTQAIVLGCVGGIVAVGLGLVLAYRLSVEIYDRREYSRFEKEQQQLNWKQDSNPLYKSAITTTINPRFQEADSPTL

Row | SMILES | IC50
1 | Cn1ccc(=O)n(-c2ccc(C[C@H](NC(=O)c3c(F)cc(NS(=O)(=O)c4ccc(C(=O)C5CC5)cc4)cc3F)C(=O)O)cc2)c1=O [Example 174, N-[4-({[4-(Cyclopropylcarbonyl)phenyl]sulfonyl}amino)-2,6-difluorobenzoyl]-4-(3-methyl-2,6-dioxo-3,6-dihydropyrimidin-1(2H)-yl)-L-phenylalanine] | 0.01 to 0.05 µM
2 | Cn1c(=O)n(-c2ccc(C[C@H](NC(=O)c3cc(F)c(NS(=O)(=O)c4ccco4)cc3F)C(=O)O)cn2)c(=O)c2ccncc21 [Example 150, N-{2,5-Difluoro-4-[(2-furylsulfonyl)amino]benzoyl}-3-[6-(1-methyl-2,4-dioxo-1,4-dihydropyrido[3,4-d]pyrimidin-3(2H)-yl)pyridin-3-yl]-L-alanine] | 0.01 to 0.05 µM
3 | Cn1ccc(=O)n(-c2ccc(C[C@H](NC(=O)c3c(F)cc(NS(=O)(=O)c4ccc(C(=O)NC(C)(C)C)cc4)cc3F)C(=O)O)cc2)c1=O [Example 167, N-{4-[({4-[(tert-Butylamino)carbonyl]phenyl}sulfonyl)amino]-2,6-difluorobenzoyl}-4-(3-methyl-2,6-dioxo-3,6-dihydropyrimidin-1(2H)-yl)-L-phenylalanine] | ≤ 0.01 µM
4 | Cn1c(=O)n(-c2ccc(C[C@H](NC(=O)c3cc(F)c(NS(=O)(=O)c4ccc(-n5cncn5)cc4)cc3F)C(=O)O)cn2)c(=O)c2ccncc21 [Example 221, N-[2,5-Difluoro-4-({[4-(1H-1,2,4-triazol-1-yl)phenyl]sulfonyl}amino)benzoyl]-3-[6-(1-methyl-2,4-dioxo-1,4-dihydropyrido[3,4-d]pyrimidin-3(2H)-yl)pyridin-3-yl]-L-alanine] | 0.01 to 0.05 µM
5 | CCNC(=O)c1ccc(S(=O)(=O)Nc2cc(F)c(C(=O)N[C@@H](Cc3ccc(-n4c(=O)cc(C)n(C)c4=O)cc3)C(=O)O)c(F)c2)cc1 [Example 155, 4-(3,4-Dimethyl-2,6-dioxo-3,6-dihydropyrimidin-1(2H)-yl)-N-{4-[({4-[(ethylamino)carbonyl]phenyl}sulfonyl)amino]-2,6-difluorobenzoyl}-L-phenylalanine] | 0.01 to 0.05 µM
6 | Cn1ccc(=O)n(-c2ccc(C[C@H](NC(=O)c3c(F)cc(NS(=O)(=O)c4ccc(C(=O)NCC5CCOCC5)cc4)cc3F)C(=O)O)cc2)c1=O [Example 172, N-(2,6-Difluoro-4-{[(4-{[(tetrahydro-2H-pyran-4-yl-methyl)amino]carbonyl}phenyl)sulfonyl]amino}benzoyl)-4-(3-methyl-2,6-dioxo-3,6-dihydropyrimidin-1(2H)-yl)-L-phenylalanine] | ≤ 0.01 µM
7 | Cn1c(=O)n(-c2ccc(C[C@H](NC(=O)c3cc(F)c(NS(=O)(=O)c4ccco4)cc3F)C(=O)O)nc2)c(=O)c2ccncc21 [Example 140, N-{2,5-Difluoro-4-[(2-furylsulfonyl)amino]benzoyl}-3-[5-(1-methyl-2,4-dioxo-1,4-dihydropyrido[3,4-d]pyrimidin-3(2H)-yl)pyridin-2-yl]-L-alanine] | 0.01 to 0.05 µM
8 | Cn1ccc(=O)n(-c2ccc(C[C@H](NC(=O)c3c(F)cc(NS(=O)(=O)c4ccc(C(=O)NCC5CC5)cc4)cc3F)C(=O)O)cc2)c1=O [Example 157, N-(4-{[(4-{[(Cyclopropylmethyl)amino]carbonyl}phenyl)sulfonyl]amino}-2,6-difluorobenzoyl)-4-(3-methyl-2,6-dioxo-3,6-dihydropyrimidin-1(2H)-yl)-L-phenylalanine] | 0.01 to 0.05 µM
9 | CCNC(=O)c1ccc(S(=O)(=O)Nc2cc(F)c(C(=O)N[C@@H](Cc3ccc(-n4c(=O)ccn(C)c4=O)cc3)C(=O)O)c(F)c2)cn1 [Example 164, N-{4-[({6-[(Ethylamino)carbonyl]pyridin-3-yl}sulfonyl)amino]-2,6-difluorobenzoyl}-4-(3-methyl-2,6-dioxo-3,6-dihydropyrimidin-1(2H)-yl)-L-phenylalanine] | 0.01 to 0.05 µM
10 | Cn1c(=O)n(-c2ccc(C[C@H](NC(=O)c3cc(F)c(NS(=O)(=O)c4ccc(-n5ccnn5)cc4)cc3F)C(=O)O)nc2)c(=O)c2ccncc21 [Example 226, N-[2,5-Difluoro-4-({[4-(1H-1,2,3-triazol-1-yl)phenyl]sulfonyl}amino)benzoyl]-3-[5-(1-methyl-2,4-dioxo-1,4-dihydropyrido[3,4-d]pyrimidin-3(2H)-yl)pyridin-2-yl]-L-alanine] | 0.01 to 0.05 µM
11 | CCNC(=O)c1ccc(S(=O)(=O)Nc2cc(F)c(C(=O)N[C@@H](Cc3ccc(-n4c(=O)c5c(ncn5C)n(C)c4=O)cc3)C(=O)O)c(F)c2)cc1 [Example 152, 4-(3,7-Dimethyl-2,6-dioxo-2,3,6,7-tetrahydro-1H-purin-1-yl)-N-{4-[({4-[(ethylamino)carbonyl]phenyl}sulfonyl)amino]-2,6-difluorobenzoyl}-L-phenylalanine] | ≤ 0.01 µM
12 | Cn1c(=O)n(-c2ccc(C[C@H](NC(=O)c3cc(F)c(NS(=O)(=O)c4ccccn4)cc3F)C(=O)O)nc2)c(=O)c2ccncc21 [Example 138, N-{2,5-Difluoro-4-[(pyridin-2-yl-sulfonyl)amino]benzoyl}-3-[5-(1-methyl-2,4-dioxo-1,4-dihydropyrido[3,4-d]pyrimidin-3(2H)-yl)pyridin-2-yl]-L-alanine] | 0.05 to 0.2 µM
13 | Cn1c(=O)n(-c2ccc(C[C@H](NC(=O)c3cc(F)c(NS(=O)(=O)c4ccc(-n5cnnn5)cc4)cc3F)C(=O)O)nc2)c(=O)c2ccncc21 [Example 218, N-[2,5-Difluoro-4-({[4-(1H-tetrazol-1-yl)phenyl]sulfonyl}amino)benzoyl]-3-[5-(1-methyl-2,4-dioxo-1,4-dihydropyrido[3,4-d]pyrimidin-3(2H)-yl)pyridin-2-yl]-L-alanine] | 0.01 to 0.05 µM

Next, values leading:

Row | IC50 | SMILES
14 | 0.05 to 0.2 µM | Cn1c(=O)n(-c2ccc(C[C@H](NC(=O)c3ccc(NS(=O)(=O)c4ccc5c(c4)C(=O)CC5)cc3F)C(=O)O)nc2)c(=O)c2ccncc21 [Example 144, N-(2-Fluoro-4-{[(3-oxo-2,3-dihydro-1H-inden-5-yl)sulfonyl]amino}benzoyl)-3-[5-(1-methyl-2,4-dioxo-1,4-dihydropyrido[3,4-d]pyrimidin-3(2H)-yl)pyridin-2-yl]-L-alanine]
15 | ≤ 0.01 µM | Cc1cc(CNC(C)(C)C)ccc1S(=O)(=O)Nc1ccc(C(=O)N[C@@H](Cc2ccc(-n3c(=O)c4ccncc4n(C)c3=O)cc2)C(=O)O)c(F)c1 [Example 180, N-{4-[({4-[(tert-Butylamino)methyl]-2-methylphenyl}sulfonyl)amino]-2-fluorobenzoyl}-4-(1-methyl-2,4-dioxo-1,4-dihydropyrido[3,4-d]pyrimidin-3(2H)-yl)-L-phenylalanine]
16 | 0.01 to 0.05 µM | CCOc1ccccc1S(=O)(=O)Nc1cc(F)c(C(=O)N[C@@H](Cc2ccc(-n3c(=O)c4ccncc4n(C)c3=O)cc2)C(=O)O)c(F)c1 [Example 214, N-(4-{[(2-Ethoxyphenyl)sulfonyl]amino}-2,6-difluorobenzoyl)-4-(1-methyl-2,4-dioxo-1,4-dihydropyrido[3,4-d]pyrimidin-3(2H)-yl)-L-phenylalanine]
17 | ≤ 0.01 µM | COc1ccccc1S(=O)(=O)Nc1cc(F)c(C(=O)N[C@@H](Cc2ccc(-n3c(=O)c4ccncc4n(C)c3=O)cn2)C(=O)O)c(F)c1 [Example 145, N-(2,6-Difluoro-4-{[(2-methoxyphenyl)sulfonyl]amino}benzoyl)-3-[5-(1-methyl-2,4-dioxo-1,4-dihydropyrido[3,4-d]pyrimidin-3(2H)-yl)pyridin-2-yl]-L-alanine]
18 | 0.01 to 0.05 µM | Cc1cn(C)c(=O)n(-c2ccc(C[C@H](NC(=O)c3ccc(NS(=O)(=O)c4ccc(C(=O)NC(C)(C)C)nc4)cc3F)C(=O)O)cc2)c1=O [Example 175, N-{4-[({6-[(tert-Butylamino)carbonyl]pyridin-3-yl}sulfonyl)amino]-2-fluorobenzoyl}-4-(3,5-dimethyl-2,6-dioxo-3,6-dihydropyrimidin-1(2H)-yl)-L-phenylalanine]
19 | 0.01 to 0.05 µM | CCOc1ccccc1S(=O)(=O)Nc1cc(F)c(C(=O)N[C@@H](Cc2ccc(-n3c(=O)c4ccncc4n(C)c3=O)cn2)C(=O)O)c(F)c1 [Example 146, N-(4-{[(2-Ethoxyphenyl)sulfonyl]amino}-2,6-difluorobenzoyl)-3-[5-(1-methyl-2,4-dioxo-1,4-dihydropyrido[3,4-d]pyrimidin-3(2H)-yl)pyridin-2-yl]-L-alanine]
20 | 0.01 to 0.05 µM | Cn1c(=O)n(-c2ccc(C[C@H](NC(=O)c3ccc(NS(=O)(=O)c4ccccn4)cc3F)C(=O)O)nc2)c(=O)c2ccncc21 [Example 142, N-{2-Fluoro-4-[(pyridin-2-yl-sulfonyl)amino]benzoyl}-3-[5-(1-methyl-2,4-dioxo-1,4-dihydropyrido[3,4-d]pyrimidin-3(2H)-yl)pyridin-2-yl]-L-alanine]

— patent publication US9533985B2, “Sulfonamide derivative and medicinal use thereof” (EA Pharma Co., Ltd., priority 2012, dated 2017)
